From PubChem BioAssay AID1963827 (Molecular Pharmacology Branch, DTP, NCI, 2024)

Tested on: 994946-033-R-J1-PDC complex spheroid viability
Experiment: Anticancer human tumor 994946-033-R-J1-PDC patient-derived melanoma cell line growth inhibition [POLQ]
Details: for IC50: curve of first compound; for viability, T/C: stronger effect = lower value
Procedure: Multicellular complex tumor spheroid response to Polymerase (POL) inhibitors (novobiocin, ART-558, RP6685) in combination with a variety of drugs and investigational agents in selected tumor cell lines
The POL inhibitors (novobiocin, ART-558, and RP6685) were evaluated both individually and in combination with standard of care and investigational anticancer small molecules within a complex spheroid model of solid tumors. . Complex spheroids include a stromal component modeled by human endothelial cells (HUVEC) and fibroblasts modeled by human mesenchymal stem cells (MSCs). The concentration ranges selected for each drug and investigational agent were based upon clinically achievable concentrations if the clinical Cmax of the agent was known.
Compounds. The drugs and investigational agents: novobiocin (NSC847541), ART-558 (NSC835418), RP-6685 (NSC848927), peposertib (NSC802822), ceralasertib (NSC780249), elimusertib (NSC800525), camonsertib (NSC841442), AZD-1390 (NSC803789), olaparib (NSC753686), talazoparib (NSC767125), rucaparib (NSC756644), sotorasib (NSC818433), MRTX-1133 (NSC836407), SN-38 (NSC673596), topotecan (NSC609699), epotoside (NSC141540), doxorubicin (NSC123127), gemcitabine (NSC613327), 5-fluorouracil (NSC19893), paclitaxel (NSC125973), vemurafenib (NSC761431), MSA-2 (NSC828583), SN-011 (NSC837082), adavosertib (NSC754352), prexasertib (NSC758257), carboplatin (NSC241240) and oxaliplatin (NSC266046), were obtained from the National Cancer Institute (NCI) Developmental Therapeutics Program Chemical Repository (21). The FDA-approved anticancer drug set is available from the Developmental Therapeutics Program at https://dtp.cancer.gov/organization/dscb/obtaining/. […] The stock solutions were prepared in dimethyl sulfoxide (DMSO, Sigma-Aldrich, St. Louis, MO, cat. D2650), except for the platinum compounds which were prepared in saline (Quality Biological, Gaithersburg, MD, cat. 114-055-101), at 800-fold the tested concentration and stored at -70 degrees C prior to their use. All drugs and investigational agents were tested over a range starting from a high concentration at or near the clinical Cmax and decreasing in half-log increments. If the clinical Cmax for an agent had not been determined, the highest concentration tested was 10 microM, except for SN-38, which was tested at a high concentration of 1 microM.
Cell Culture. All cells were maintained in an incubator at 37 degrees C and 5% CO2 with 95% humidity. The PDC lines were cultured according to standard operating procedures established by the NCI PDMR (https://pdmr.cancer.gov). Table 3 of the manuscript, lists the cell lines along with the number of the three cell types plated to form the mct-spheroids and media for tumor cell growth. After thawing, all PDC lines, except 997537-175-T-J1-PDC and 415267-285-R-J2-PDC, were cultured in Matrigel-coated flasks prepared with a working solution of 1X Ham's F-12 nutrient mix, without supplementation (Thermo Fisher Scientific, cat. 11765054), 100 U/mL penicillin-streptomycin (Thermo Fisher Scientific, cat. 15140122), and 2.5% Matrigel (Corning Inc., Corning, NY, cat. 354248) for the first three passages. The two PDC lines 997537-175-T-J1-PDC and 415267-285-R-J2-PDC were cultured on uncoated flasks. The 857933-349-R-J2-PDC line was cultured in 6C/Colon 1B media containing advanced DMEM/F-12 (Thermo Fisher Scientific, cat. 12634028), 10 mM HEPES (Thermo Fisher Scientific, cat. 15630080), 1X GlutaMAX supplement (Thermo Fisher Scientific, cat. 35050061), 0.1 mg/mL primocin (InvivoGen, San Diego, CA, cat. ant-pm-2), 10% defined fetal bovine serum, heat inactivated (HyClone Laboratories Inc., Logan, UT, cat. SH30070.03HI), 50% L-WRN conditioned media (ATCC, cat. CRL-3276), 1.25 mM N-Acetyl-L-cysteine (Sigma-Aldrich, cat. A9165), 10 mM nicotinamide (Sigma-Aldrich, cat. N0636), 1X B-27 supplement (Thermo Fisher Scientific, cat. 17504044), 1X N-2 supplement (Thermo Fisher Scientific, cat. […]

[1] = second compound 0.0316 µM, first compound 0.0316 µM
[2] = second compound 0.0316 µM, first compound 0.1 µM
[3] = second compound 0.0316 µM, first compound 0.316 µM
[4] = second compound 0.0316 µM, first compound 1 µM
[5] = second compound 0.1 µM, first compound 0.0316 µM
[6] = second compound 0.1 µM, first compound 0.1 µM
[7] = second compound 0.1 µM, first compound 0.316 µM
[8] = second compound 0.1 µM, first compound 1 µM
[9] = second compound 0.316 µM, first compound 0.0316 µM
[10] = second compound 0.316 µM, first compound 0.1 µM
[11] = second compound 0.316 µM, first compound 0.316 µM
[12] = second compound 0.316 µM, first compound 1 µM
[13] = second compound 1 µM, first compound 0.0316 µM
[14] = second compound 1 µM, first compound 0.1 µM
[15] = second compound 1 µM, first compound 0.316 µM
[16] = second compound 1 µM, first compound 1 µM
[17] = second compound 3.16 µM, first compound 0.0316 µM
[18] = second compound 3.16 µM, first compound 0.1 µM
[19] = second compound 3.16 µM, first compound 0.316 µM
[20] = second compound 3.16 µM, first compound 1 µM
[21] = second compound 10 µM, first compound 0.0316 µM
[22] = second compound 10 µM, first compound 0.1 µM
[23] = second compound 10 µM, first compound 0.316 µM
[24] = second compound 10 µM, first compound 1 µM
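Further: spheroids exposed to drugs for 7 days.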
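Wherever viability, T/C is given: 100% = DMSO vehicle treated spheroids.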

Structure (SMILES): CCc1c2c(nc3ccc(O)cc13)-c1cc3c(c(=O)n1C2)COC(=O)[C@]3(O)CC + Cc1cccc(N(C)C(=O)C2C(O)CCN2c2nc(C)cc(C(F)(F)F)c2C#N)c1
- IC50 (second compound 0.0316 µM): < 0.00316 µM
- IC50 (second compound 0.1 µM): < 0.00316 µM
- IC50 (second compound 0.316 µM): < 0.00316 µM
- IC50 (second compound 1 µM): < 0.00316 µM
- IC50 (second compound 3.16 µM): < 0.00316 µM
- IC50 (second compound 10 µM): < 0.00316 µM
- viability, T/C (second compound 0.0316 µM, first compound 0.00316 µM): 17.5%
- viability, T/C (second compound 0.0316 µM, first compound 0.01 µM): 10.9%
- viability, T/C [1]: 5%
- viability, T/C [2]: 5.25%
- viability, T/C [3]: 2.7%
- viability, T/C [4]: 1.11%
- viability, T/C (second compound 0.1 µM, first compound 0.00316 µM): 18.9%
- viability, T/C (second compound 0.1 µM, first compound 0.01 µM): 10%
- viability, T/C [5]: 7.4%
- viability, T/C [6]: 5.26%
- viability, T/C [7]: 3.12%
- viability, T/C [8]: 0.8%
- viability, T/C (second compound 0.316 µM, first compound 0.00316 µM): 18.6%
- viability, T/C (second compound 0.316 µM, first compound 0.01 µM): 8.02%
- viability, T/C [9]: 5.77%
- viability, T/C [10]: 4.13%
- viability, T/C [11]: 4.1%
- viability, T/C [12]: 1.27%
- viability, T/C (second compound 1 µM, first compound 0.00316 µM): 18.7%
- viability, T/C (second compound 1 µM, first compound 0.01 µM): 8.88%
- viability, T/C [13]: 5.58%
- viability, T/C [14]: 7.75%
- viability, T/C [15]: 3.43%
- viability, T/C [16]: 1.3%
- viability, T/C (second compound 3.16 µM, first compound 0.00316 µM): 26.8%
- viability, T/C (second compound 3.16 µM, first compound 0.01 µM): 12%
- viability, T/C [17]: 8.11%
- viability, T/C [18]: 5.61%
- viability, T/C [19]: 2.9%
- viability, T/C [20]: 0.8%
- viability, T/C (second compound 10 µM, first compound 0.00316 µM): 17.9%
- viability, T/C (second compound 10 µM, first compound 0.01 µM): 9.1%
- viability, T/C [21]: 5.89%
- viability, T/C [22]: 4%
- viability, T/C [23]: 2.6%
- viability, T/C [24]: 0.66%

Structure (SMILES): O=C(c1cc(Cc2n[nH]c(=O)c3ccccc23)ccc1F)N1CCN(C(=O)C2CC2)CC1 + COC1C(OC(N)=O)C(O)C(Oc2ccc3c(O)c(NC(=O)c4ccc(O)c(CC=C(C)C)c4)c(=O)oc3c2C)OC1(C)C
- IC50 (second compound 0.0316 µM): 4.75 µM
- IC50 (second compound 0.1 µM): 4.62 µM
- IC50 (second compound 0.316 µM): 4.96 µM
- IC50 (second compound 1 µM): 4.03 µM
- IC50 (second compound 3.16 µM): 4.79 µM
- IC50 (second compound 10 µM): 4.21 µM
- viability, T/C [1]: 56.5%
- viability, T/C [2]: 91.1%
- viability, T/C [3]: 100%
- viability, T/C [4]: 87.1%
- viability, T/C (second compound 0.0316 µM, first compound 3.16 µM): 57.7%
- viability, T/C (second compound 0.0316 µM, first compound 10 µM): 35.9%
- viability, T/C [5]: 110%
- viability, T/C [6]: 81.5%
- viability, T/C [7]: 87.1%
- viability, T/C [8]: 73.5%
- viability, T/C (second compound 0.1 µM, first compound 3.16 µM): 72.4%
- viability, T/C (second compound 0.1 µM, first compound 10 µM): 22.2%
- viability, T/C [9]: 93.2%
- viability, T/C [10]: 82.2%
- viability, T/C [11]: 86.4%
- viability, T/C [12]: 67.7%
- viability, T/C (second compound 0.316 µM, first compound 3.16 µM): 69.8%
- viability, T/C (second compound 0.316 µM, first compound 10 µM): 28.9%
- viability, T/C [13]: 99.1%
- viability, T/C [14]: 84.5%
- viability, T/C [15]: 90.2%
- viability, T/C [16]: 69.1%
- viability, T/C (second compound 1 µM, first compound 3.16 µM): 58.1%
- viability, T/C (second compound 1 µM, first compound 10 µM): 28.1%
- viability, T/C [17]: 84.7%
- viability, T/C [18]: 83.2%
- viability, T/C [19]: 88.4%
- viability, T/C [20]: 76.6%
- viability, T/C (second compound 3.16 µM, first compound 3.16 µM): 60.4%
- viability, T/C (second compound 3.16 µM, first compound 10 µM): 32.2%
- viability, T/C [21]: 95.5%
- viability, T/C [22]: 79.2%
- viability, T/C [23]: 86%
- viability, T/C [24]: 69.9%
- viability, T/C (second compound 10 µM, first compound 3.16 µM): 60.8%
- viability, T/C (second compound 10 µM, first compound 10 µM): 27.1%
